Experimental data as given in paper PMC8822125, “RW-BP100-4D, a Promising Antimicrobial Candidate With Broad-Spectrum Bactericidal Activity” (Frontiers in Microbiology, 2022).
Where no end group is shown, it is not given here.

Tests used:
S. enterica ATCC13076 = assay: Intracellular antibacterial activity in MAC-T cells; format: cell-based, Salmonella enterica; settings: peptide 50 μg/mL, 2 h, infected MAC-T cells, CFU count
Description: (§1) The intracellular antibacterial activity of RW-BP100-4D against S. aureus ATCC29213 and S. enterica ATCC13076 were determined as described previously ([John et al., 2019]). MAC-T cells were cultured in a 12-well plate and then infected with S. aureus ATCC29213 or S. enterica ATCC13076 (∼10^5CFU, MOI = 10) for 1 h. The spare bacteria were eliminated by treating with kanamycin (100 μg/mL) for 1 h. After that, kanamycin was removed by washing with PBS for 4 times. Then RW-BP100-4D or RW-BP100 were added to a final concentration of 50 μg/mL, respectively and incubated for 2 h. Meanwhile, kanamycin (50 μg/mL) and PBS were set as the antibiotic treatment group and treatment control group, respectively. Finally, MAC-T cells were treated with 0.1% TritonX-100. The lysates were serially diluted and spread on selective agar plates to enumerate the intracellular live bacteria. Each test was performed with three independent repeats.

various microorganisms = assay: MIC/MBC, summary statements over several strains; format: cell-based; settings: over the strains of Table 2
HeLa = settings: peptide concentration 11 μM; ref Torcato et al., 2013; cited from earlier work
[1] = tested on: methicillin-resistant S. aureus ATCC33591; assay: Mouse skin infection model; format: in vivo; settings: peptide 50 μg (1 mg/mL, 50 μL) on skin lesion 2 h after infection; 24 h; ICR female mice
Description: (§2) Female ICR mice (∼18 g, four weeks old) bought from Yangzhou University were used in this study. They were reared with ad libitum access to drinking water and antibiotic-free feed. The animal experiments were conducted in strict accordance with the Laboratory Animal Welfare and Animal Experimental Ethical Certificate, as issued by Committee on Animal Welfare and Experimental Ethics in Jiangsu Academy of Agricultural Sciences (approval no. JAAS20200516 and JAAS20211208).
(§3) The mouse skin infection model and bacteremia model were established to evaluate the treatment efficacy of RW-BP100-4D on local and system infections, respectively. In each model, ICR female mice were equally allocated into different treatment groups and each group contained six mice. The mouse skin infection model and bacteremia model were constructed according to previously described methods ([Natalia et al., 2019]; [Song et al., 2020]). The mice were challenged with methicillin-resistant S. aureus ATCC33591 (mecA+, MRSA) via spreading on skin lesion (5 × 10^5 CFU/mL, 0.1 mL) or intraperitoneal injection (3.0 × 10^8CFU/mL, 0.5 mL). […] S. aureus isolates were counted by using the Chromagar selective agar (Chromagar, France) supplemented with 8 μg/mL oxacillin.

human erythrocytes = settings: peptide 4.9 μM; ref Torcato et al., 2013; cited from earlier work
[2] = tested on: S. aureus ATCC29213 mature biofilm; assay: Mature biofilm dispersal assay (crystal violet); format: cell-based, Staphylococcus aureus; settings: peptide 200 μg/mL, 30 min, 37°C on 24 h biofilm, crystal violet OD590
Description: Each test was performed with three independent repeats.

[3] = tested on: methicillin-resistant S. aureus ATCC33591; assay: Mouse bacteremia model; format: in vivo; settings: 25 mg/kg intraperitoneal 2 h after infection; 24 h
Description: as §2, §3

S. aureus ATCC29213 = assay: Intracellular antibacterial activity in MAC-T cells; format: cell-based, Staphylococcus aureus; settings: peptide 50 μg/mL, 2 h, infected MAC-T cells, CFU count
Description: as §1

RRLFRRILRWL-NH2 [RW-BP100]
Elimination of intracellular S. enterica ATCC13076 (S. enterica ATCC13076): 2.57 log | MBC values relative to the corresponding MIC values (various microorganisms): 4–8 fold | Cell death rate of HeLa (HeLa): 73% | Reduction of S. aureus ATCC33591 in infected mouse skin [1]: 3.13 log | Hemolytic rate toward human erythrocytes (human erythrocytes): 50% | Mature biofilm matrix lost compared to the PBS control [2]: 29.4% | Bacterial loads in heart, liver and kidney at 25 mg/kg [3]: did not significantly reduce | Elimination of intracellular S. aureus ATCC29213 (S. aureus ATCC29213): 2.34 log
